{"source": "patent US20210254056A1", "about": "“IDENTIFICATION AND TARGETED MODULATION OF GENE SIGNALING NETWORKS” (CAMP4 THERAPEUTICS CORPORATION, priority 2017, published 2021)", "test_system": "hepatocytes", "test": "RNA-seq of hepatocytes treated with Phase III failure compounds", "conditions": "hepatocytes", "procedure": "RNA-seq was performed to determine the effects of the compounds on hepatocytes.\nSignificance was determined by the criteria of FPKM≥0.5, a log 2(fold-change)≥1, and a […]."}
{"smiles": "CCC(CC)[C@H](NC(C)=O)[C@@H]1[C@H](O)[C@@H](C(=O)O)C[C@H]1NC(=N)N.O.O.O", "note": "[peramivir (trihydrate), peramivir]", "values": [{"measurement": "RNA-seq results: MCCC1 expression", "setting": "gene MCCC1", "value": "−0.27"}, {"measurement": "RNA-seq results: MCCC2 expression", "setting": "gene MCCC2", "value": "−0.31"}, {"measurement": "RNA-seq results: MCM6 expression", "setting": "gene MCM6", "value": "−0.34"}, {"measurement": "RNA-seq results: MEN1 expression", "setting": "gene MEN1", "value": 0.18}, {"measurement": "RNA-seq results: MET expression", "setting": "gene MET", "value": "−0.27"}, {"measurement": "RNA-seq results: MGAT2 expression", "setting": "gene MGAT2", "value": "−0.09"}, {"measurement": "RNA-seq results: MKS1 expression", "setting": "gene MKS1", "value": 0.23}, {"measurement": "RNA-seq results: MLH1 expression", "setting": "gene MLH1", "value": "−0.18"}, {"measurement": "RNA-seq results: MMAA expression", "setting": "gene MMAA", "value": "−0.25"}, {"measurement": "RNA-seq results: MMAB expression", "setting": "gene MMAB", "value": "−0.09"}, {"measurement": "RNA-seq results: MMADHC expression", "setting": "gene MMADHC", "value": "−0.38"}, {"measurement": "RNA-seq results: MOCS1 expression", "setting": "gene MOCS1", "value": 0.03}, {"measurement": "RNA-seq results: MOGAT2 expression", "setting": "gene MOGAT2", "value": 0.66}, {"measurement": "RNA-seq results: MOGS expression", "setting": "gene MOGS", "value": 0.33}, {"measurement": "RNA-seq results: MPZ expression", "setting": "gene MPZ", "value": 0.37}, {"measurement": "RNA-seq results: MRPL3 expression", "setting": "gene MRPL3", "value": "−0.47"}, {"measurement": "RNA-seq results: MTHFR expression", "setting": "gene MTHFR", "value": 0.37}, {"measurement": "RNA-seq results: MTM1 expression", "setting": "gene MTM1", "value": "−0.29"}, {"measurement": "RNA-seq results: MTO1 expression", "setting": "gene MTO1", "value": "−0.13"}, {"measurement": "RNA-seq results: MTR expression", "setting": "gene MTR", "value": 0.10}, {"measurement": "RNA-seq results: MTRR expression", "setting": "gene MTRR", "value": "−0.43"}, {"measurement": "RNA-seq results: MTTP expression", "setting": "gene MTTP", "value": "−0.18"}, {"measurement": "RNA-seq results: MVK expression", "setting": "gene MVK", "value": 0.07}, {"measurement": "RNA-seq results: MYH9 expression", "setting": "gene MYH9", "value": 0.20}, {"measurement": "RNA-seq results: MYO5B expression", "setting": "gene MYO5B", "value": "−0.08"}, {"measurement": "RNA-seq results: NAGS expression", "setting": "gene NAGS", "value": 0.31}, {"measurement": "RNA-seq results: NARS2 expression", "setting": "gene NARS2", "value": "−0.42"}, {"measurement": "RNA-seq results: NAT2 expression", "setting": "gene NAT2", "value": "−0.40"}, {"measurement": "RNA-seq results: NBAS expression", "setting": "gene NBAS", "value": "−0.22"}, {"measurement": "RNA-seq results: NCF2 expression", "setting": "gene NCF2", "value": "−0.20"}, {"measurement": "RNA-seq results: NEK1 expression", "setting": "gene NEK1", "value": "−0.22"}, {"measurement": "RNA-seq results: NEK8 expression", "setting": "gene NEK8", "value": 0.47}, {"measurement": "RNA-seq results: NEU1 expression", "setting": "gene NEU1", "value": "−0.25"}, {"measurement": "RNA-seq results: NFKB2 expression", "setting": "gene NFKB2", "value": 0.30}, {"measurement": "RNA-seq results: NFKBIA expression", "setting": "gene NFKBIA", "value": "−0.19"}, {"measurement": "RNA-seq results: NFU1 expression", "setting": "gene NFU1", "value": "−0.52"}, {"measurement": "RNA-seq results: NGLY1 expression", "setting": "gene NGLY1", "value": "−0.40"}, {"measurement": "RNA-seq results: NHP2 expression", "setting": "gene NHP2", "value": 0.65}, {"measurement": "RNA-seq results: NME1 expression", "setting": "gene NME1", "value": 0.00}, {"measurement": "RNA-seq results: NOD2 expression", "setting": "gene NOD2", "value": 0.30}, {"measurement": "RNA-seq results: NOP10 expression", "setting": "gene NOP10", "value": 0.03}, {"measurement": "RNA-seq results: NOTCH1 expression", "setting": "gene NOTCH1", "value": 0.23}, {"measurement": "RNA-seq results: NOTCH2 expression", "setting": "gene NOTCH2", "value": 0.01}, {"measurement": "RNA-seq results: NPC1 expression", "setting": "gene NPC1", "value": "−0.09"}, {"measurement": "RNA-seq results: NR1H4 expression", "setting": "gene NR1H4", "value": 0.00}, {"measurement": "RNA-seq results: NUBPL expression", "setting": "gene NUBPL", "value": "−0.11"}, {"measurement": "RNA-seq results: NUDT7 expression", "setting": "gene NUDT7", "value": "−0.70"}, {"measurement": "RNA-seq results: NUDT12 expression", "setting": "gene NUDT12", "value": "−0.32"}, {"measurement": "RNA-seq results: OAT expression", "setting": "gene OAT", "value": "−0.40"}, {"measurement": "RNA-seq results: OPA3 expression", "setting": "gene OPA3", "value": 0.14}, {"measurement": "RNA-seq results: OTC expression", "setting": "gene OTC", "value": "−0.33"}, {"measurement": "RNA-seq results: PAF1 expression", "setting": "gene PAF1", "value": "−0.04"}, {"measurement": "RNA-seq results: PAH expression", "setting": "gene PAH", "value": "−0.22"}, {"measurement": "RNA-seq results: PANK2 expression", "setting": "gene PANK2", "value": "−0.22"}, {"measurement": "RNA-seq results: PAOX expression", "setting": "gene PAOX", "value": "−0.04"}, {"measurement": "RNA-seq results: PC expression", "setting": "gene PC", "value": 0.27}, {"measurement": "RNA-seq results: PCCA expression", "setting": "gene PCCA", "value": "−0.23"}, {"measurement": "RNA-seq results: PCK2 expression", "setting": "gene PCK2", "value": 0.18}, {"measurement": "RNA-seq results: PCSK9 expression", "setting": "gene PCSK9", "value": 0.46}, {"measurement": "RNA-seq results: PCYT1A expression", "setting": "gene PCYT1A", "value": "−0.07"}, {"measurement": "RNA-seq results: PDGFRA expression", "setting": "gene PDGFRA", "value": "−0.06"}, {"measurement": "RNA-seq results: PDP1 expression", "setting": "gene PDP1", "value": "−0.30"}, {"measurement": "RNA-seq results: PEPD expression", "setting": "gene PEPD", "value": 0.03}, {"measurement": "RNA-seq results: PEX11A expression", "setting": "gene PEX11A", "value": "−0.27"}, {"measurement": "RNA-seq results: PEX12 expression", "setting": "gene PEX12", "value": "−0.20"}, {"measurement": "RNA-seq results: PEX14 expression", "setting": "gene PEX14", "value": 0.19}, {"measurement": "RNA-seq results: PFKM expression", "setting": "gene PFKM", "value": 0.45}, {"measurement": "RNA-seq results: PGM1 expression", "setting": "gene PGM1", "value": "−0.24"}, {"measurement": "RNA-seq results: PHGDH expression", "setting": "gene PHGDH", "value": 0.38}, {"measurement": "RNA-seq results: PHKA1 expression", "setting": "gene PHKA1", "value": "−0.18"}, {"measurement": "RNA-seq results: PHKA2 expression", "setting": "gene PHKA2", "value": 0.11}, {"measurement": "RNA-seq results: PHKB expression", "setting": "gene PHKB", "value": "−0.39"}, {"measurement": "RNA-seq results: PHYH expression", "setting": "gene PHYH", "value": "−0.26"}, {"measurement": "RNA-seq results: PIEZO1 expression", "setting": "gene PIEZO1", "value": 0.30}, {"measurement": "RNA-seq results: PIGA expression", "setting": "gene PIGA", "value": "−0.37"}, {"measurement": "RNA-seq results: PIGM expression", "setting": "gene PIGM", "value": "−0.35"}, {"measurement": "RNA-seq results: PKD1 expression", "setting": "gene PKD1", "value": 0.61}, {"measurement": "RNA-seq results: PKD2 expression", "setting": "gene PKD2", "value": 0.28}, {"measurement": "RNA-seq results: PKHD1 expression", "setting": "gene PKHD1", "value": 0.34}, {"measurement": "RNA-seq results: PKLR expression", "setting": "gene PKLR", "value": 0.35}, {"measurement": "RNA-seq results: PLA2G6 expression", "setting": "gene PLA2G6", "value": 0.59}, {"measurement": "RNA-seq results: PLEKHM1 expression", "setting": "gene PLEKHM1", "value": 0.10}, {"measurement": "RNA-seq results: PMVK expression", "setting": "gene PMVK", "value": 0.39}, {"measurement": "RNA-seq results: PNP", "setting": "gene PNP", "value": "−0.40"}, {"measurement": "RNA-seq results: PNPLA2", "setting": "gene PNPLA2", "value": 0.02}, {"measurement": "RNA-seq results, POLD1", "setting": "gene POLD1", "value": 0.24}, {"measurement": "RNA-seq results: POLD1", "setting": "gene POLD1", "value": 0.30}, {"measurement": "RNA-seq results, POLG2", "setting": "gene POLG2", "value": 0.19}, {"measurement": "RNA-seq results: POLG2", "setting": "gene POLG2", "value": 0.22}, {"measurement": "RNA-seq results, POLG", "setting": "gene POLG", "value": 0.03}, {"measurement": "RNA-seq results: POLG", "setting": "gene POLG", "value": 0.10}, {"measurement": "RNA-seq results, POR", "setting": "gene POR", "value": 0.82}, {"measurement": "RNA-seq results: POR", "setting": "gene POR", "value": 0.16}, {"measurement": "RNA-seq results, PPAPDC2", "setting": "gene PPAPDC2", "value": "−0.01"}, {"measurement": "RNA-seq results: PPAPDC2", "setting": "gene PPAPDC2", "value": "−0.14"}, {"measurement": "RNA-seq results, PPARA", "setting": "gene PPARA", "value": 0.09}, {"measurement": "RNA-seq results: PPARA", "setting": "gene PPARA", "value": "−0.14"}, {"measurement": "RNA-seq results, PPARG", "setting": "gene PPARG", "value": 0.16}, {"measurement": "RNA-seq results: PPARG", "setting": "gene PPARG", "value": "−0.47"}, {"measurement": "RNA-seq results, PPM1K", "setting": "gene PPM1K", "value": 0.13}, {"measurement": "RNA-seq results: PPM1K", "setting": "gene PPM1K", "value": "−0.24"}, {"measurement": "RNA-seq results, PRKCD", "setting": "gene PRKCD", "value": 0.03}, {"measurement": "RNA-seq results: PRKCD", "setting": "gene PRKCD", "value": 0.06}, {"measurement": "RNA-seq results, PRODH", "setting": "gene PRODH", "value": 0.2}, {"measurement": "RNA-seq results: PRODH", "setting": "gene PRODH", "value": "−0.14"}, {"measurement": "RNA-seq results, PROS1", "setting": "gene PROS1", "value": "−0.19"}, {"measurement": "RNA-seq results: PROS1", "setting": "gene PROS1", "value": "−0.20"}, {"measurement": "RNA-seq results, PROZ", "setting": "gene PROZ", "value": 0.28}, {"measurement": "RNA-seq results: PROZ", "setting": "gene PROZ", "value": 0.10}, {"measurement": "RNA-seq results, PSAT1", "setting": "gene PSAT1", "value": 0.26}, {"measurement": "RNA-seq results: PSAT1", "setting": "gene PSAT1", "value": "−0.18"}, {"measurement": "RNA-seq results, PSMB8", "setting": "gene PSMB8", "value": 0.02}, {"measurement": "RNA-seq results: PSMB8", "setting": "gene PSMB8", "value": 0.08}, {"measurement": "RNA-seq results, PSPH", "setting": "gene PSPH", "value": 0.05}, {"measurement": "RNA-seq results: PSPH", "setting": "gene PSPH", "value": "−0.12"}, {"measurement": "RNA-seq results, PTCH1", "setting": "gene PTCH1", "value": 0.28}, {"measurement": "RNA-seq results: PTCH1", "setting": "gene PTCH1", "value": 0.20}, {"measurement": "RNA-seq results, PTRF", "setting": "gene PTRF", "value": "−0.15"}, {"measurement": "RNA-seq results: PTRF", "setting": "gene PTRF", "value": 0.25}]}
